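48-hour exposure; five concentrations; linearly interpolated endpoints. Here, GI50 denotes the concentration required for 50% inhibition of growth.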 Calls of active or inactive are those of the source. Rule as the data show it: active = GI50 up to about 1.1 µM and inactive = higher.
What was measured:
Experiment in all cases: NCI anticancer screen, dose series, 48 h
SK-MEL-28 = test system: SK-MEL-28
CAKI-1 = test system: CAKI-1
HCC 2998 = test system: HCC 2998
NCI-H226 = test system: NCI-H226
SNB-19 = test system: SNB-19
M14 = test system: M14
RXF 393 = test system: RXF 393
HOP-92 = test system: HOP-92
LOX IMVI = test system: LOX IMVI
UACC-62 = test system: UACC-62
OVCAR-5 = test system: OVCAR-5
K562 = test system: K562
CCRF-CEM = test system: CCRF-CEM
HCT-116 = test system: HCT-116
NCI/ADR-RES = test system: NCI/ADR-RES
OVCAR-3 = test system: OVCAR-3
OVCAR-4 = test system: OVCAR-4
BT-549 = test system: BT-549
A549 = test system: A549
NCI-H460 = test system: NCI-H460
PC-3 = test system: PC-3
SF-268 = test system: SF-268
SW-620 = test system: SW-620
ACHN = test system: ACHN
IGROV-1 = test system: IGROV-1
HT-29 = test system: HT-29
COLO 205 = test system: COLO 205
MCF7 = test system: MCF7
UACC-257 = test system: UACC-257
SK-OV-3 = test system: SK-OV-3
Hs-578T = test system: Hs-578T
Malme-3M = test system: Malme-3M
OVCAR-8 = test system: OVCAR-8
NCI-H23 = test system: NCI-H23
786-0 = test system: 786-0
HCT-15 = test system: HCT-15
HOP-62 = test system: HOP-62
MDA-MB-435 = test system: MDA-MB-435
U-251 = test system: U-251
KM12 = test system: KM12
SK-MEL-2 = test system: SK-MEL-2
SF-539 = test system: SF-539
HL-60 = test system: HL-60
TK-10 = test system: TK-10
UO-31 = test system: UO-31
SN12C = test system: SN12C
MDA-MB-231 = test system: MDA-MB-231
NCI-H522 = test system: NCI-H522
SNB-75 = test system: SNB-75
A498 = test system: A498
SF-295 = test system: SF-295
MDA-N = test system: MDA-N
T47D = test system: T47D
SR = test system: SR
EKVX = test system: EKVX
MOLT-4 = test system: MOLT-4
SK-MEL-5 = test system: SK-MEL-5
DU-145 = test system: DU-145
RPMI-8226 = test system: RPMI-8226

Measured: GI50

Nc1ccc(-c2ccc(Nc3cc(S(=O)(=O)O)c(N)c4c3C(=O)c3ccccc3C4=O)cc2)c(S(=O)(=O)O)c1
inactive: SK-MEL-28 > 100 µM | CAKI-1 > 100 µM | HCC 2998 > 100 µM | NCI-H226 > 100 µM | SNB-19 > 100 µM | M14 > 100 µM | RXF 393 > 100 µM | HOP-92 > 100 µM | LOX IMVI > 100 µM | UACC-62 > 100 µM | OVCAR-5 > 100 µM | K562 > 100 µM | CCRF-CEM > 100 µM | HCT-116 > 100 µM | NCI/ADR-RES > 100 µM | OVCAR-3 > 100 µM | OVCAR-4 > 100 µM | BT-549 > 100 µM | A549 > 100 µM | NCI-H460 > 100 µM | PC-3 > 100 µM | SF-268 > 100 µM | SW-620 > 100 µM | ACHN > 100 µM | IGROV-1 > 100 µM | HT-29 > 100 µM | COLO 205 > 100 µM | MCF7 > 100 µM | UACC-257 > 100 µM | SK-OV-3 > 100 µM | Hs-578T > 100 µM | Malme-3M > 100 µM | OVCAR-8 > 100 µM | NCI-H23 > 100 µM | 786-0 > 100 µM | HOP-62 > 100 µM | MDA-MB-435 > 100 µM | U-251 > 100 µM | KM12 > 100 µM | SK-MEL-2 > 100 µM | SF-539 > 100 µM | HL-60 > 100 µM | TK-10 > 100 µM | UO-31 > 100 µM | SN12C > 100 µM | MDA-MB-231 > 100 µM | NCI-H522 > 100 µM | SNB-75 > 100 µM | A498 > 100 µM | SF-295 > 100 µM | MDA-N > 100 µM | T47D > 100 µM | SR > 100 µM | EKVX > 100 µM | MOLT-4 41.8 µM | SK-MEL-5 > 100 µM | DU-145 > 100 µM | RPMI-8226 > 100 µM
> 100 µM: HCT-15

OC1COC(n2c3ccc(Br)cc3c3ccc4c5ccccc5[nH]c4c32)C(O)C1O (configuration not stated)
active: UACC-62 0.643 µM | BT-549 1.1 µM | SW-620 0.644 µM | SK-OV-3 0.832 µM | SK-MEL-2 0.658 µM | SF-295 0.538 µM
inactive: SK-MEL-28 1.13 µM | CAKI-1 3.13 µM | HCC 2998 2.67 µM | NCI-H226 6.76 µM | SNB-19 10.7 µM | M14 3.12 µM | RXF 393 1.76 µM | HOP-92 2.54 µM | LOX IMVI 2.31 µM | OVCAR-5 2.92 µM | K562 2.29 µM | CCRF-CEM 4.72 µM | HCT-116 3.55 µM | NCI/ADR-RES 4.07 µM | OVCAR-3 3.37 µM | OVCAR-4 13.5 µM | A549 2.61 µM | NCI-H460 2.58 µM | PC-3 2.21 µM | SF-268 3.84 µM | ACHN 2.84 µM | IGROV-1 1.21 µM | HT-29 3.15 µM | COLO 205 1.89 µM | MCF7 2.99 µM | UACC-257 5.21 µM | Hs-578T 3.18 µM | Malme-3M 3.88 µM | OVCAR-8 3.65 µM | NCI-H23 3.02 µM | 786-0 3.96 µM | HOP-62 3.64 µM | MDA-MB-435 3.89 µM | U-251 5.01 µM | KM12 1.56 µM | SF-539 5.24 µM | HL-60 3.48 µM | TK-10 4.28 µM | UO-31 2.82 µM | SN12C 4.84 µM | MDA-MB-231 2.14 µM | NCI-H522 2.82 µM | SNB-75 3.24 µM | A498 4.3 µM | MDA-N 4.4 µM | T47D 5.21 µM | SR 3.67 µM | EKVX 4.59 µM | MOLT-4 3.05 µM | SK-MEL-5 2.26 µM | DU-145 3.66 µM | RPMI-8226 3.52 µM
3.37 µM: HCT-15

CC(C)(C)OC(=O)NCCNC(=O)CN(CC(=O)O)C1CCCCC1N(CC(=O)O)CC(=O)O (configuration not stated)
> 100 µM: HCT-15
inactive: SK-MEL-28 > 100 µM | CAKI-1 > 100 µM | HCC 2998 > 100 µM | NCI-H226 > 100 µM | SNB-19 > 100 µM | M14 > 100 µM | RXF 393 > 100 µM | HOP-92 > 100 µM | LOX IMVI > 100 µM | UACC-62 > 100 µM | OVCAR-5 > 100 µM | K562 > 100 µM | CCRF-CEM > 100 µM | HCT-116 > 100 µM | NCI/ADR-RES > 100 µM | OVCAR-3 > 100 µM | OVCAR-4 > 100 µM | BT-549 > 100 µM | A549 > 100 µM | NCI-H460 > 100 µM | PC-3 > 100 µM | SF-268 > 100 µM | SW-620 > 100 µM | ACHN > 100 µM | IGROV-1 > 100 µM | HT-29 > 100 µM | COLO 205 > 100 µM | MCF7 > 100 µM | UACC-257 > 100 µM | SK-OV-3 > 100 µM | Hs-578T > 100 µM | Malme-3M > 100 µM | OVCAR-8 > 100 µM | NCI-H23 > 100 µM | 786-0 > 100 µM | HOP-62 > 100 µM | MDA-MB-435 > 100 µM | U-251 > 100 µM | KM12 > 100 µM | SK-MEL-2 > 100 µM | SF-539 > 100 µM | HL-60 > 100 µM | TK-10 > 100 µM | UO-31 > 100 µM | SN12C > 100 µM | MDA-MB-231 > 100 µM | NCI-H522 > 100 µM | SNB-75 > 100 µM | A498 > 100 µM | SF-295 > 100 µM | MDA-N > 100 µM | T47D > 100 µM | SR > 100 µM | MOLT-4 > 100 µM | SK-MEL-5 > 100 µM | DU-145 > 100 µM | RPMI-8226 > 100 µM

O=C(/C=C\c1ccsc1)c1ccccc1
inactive: SK-MEL-28 12.4 µM | CAKI-1 3.71 µM | HCC 2998 9.44 µM | NCI-H226 16.5 µM | SNB-19 13.2 µM | M14 8.47 µM | RXF 393 5.75 µM | HOP-92 17.6 µM | LOX IMVI 2.21 µM | UACC-62 12.2 µM | OVCAR-5 16.1 µM | K562 4 µM | HCT-116 3.85 µM | NCI/ADR-RES 12.3 µM | OVCAR-3 14.7 µM | OVCAR-4 3.94 µM | BT-549 12.6 µM | NCI-H460 11.4 µM | PC-3 11.1 µM | SF-268 6.9 µM | SW-620 2.91 µM | ACHN 8.05 µM | IGROV-1 6.9 µM | HT-29 4.06 µM | COLO 205 16.2 µM | MCF7 1.74 µM | UACC-257 16.6 µM | SK-OV-3 17.1 µM | Hs-578T 5.35 µM | OVCAR-8 8.99 µM | NCI-H23 5.7 µM | 786-0 7.21 µM | HOP-62 16.1 µM | MDA-MB-435 10.6 µM | U-251 3.78 µM | KM12 2.97 µM | SK-MEL-2 16.7 µM | SF-539 7.06 µM | TK-10 15 µM | UO-31 7.1 µM | SN12C 12 µM | MDA-MB-231 4.17 µM | NCI-H522 1.68 µM | SNB-75 10.1 µM | A498 5.31 µM | SF-295 15.8 µM | MDA-N 12.4 µM | T47D 5.31 µM | SR 2.38 µM | EKVX 12.9 µM | MOLT-4 2.94 µM | SK-MEL-5 13.8 µM | DU-145 12.8 µM | RPMI-8226 2.22 µM
3.61 µM: HCT-15
active: HL-60 0.182 µM

Reference: ChEMBL document CHEMBL1201862, “PubChem BioAssay data set” (2004)
